Results on four compounds are retold here after ChEMBL document CHEMBL5352488, “Development of novel S-N3-DABO derivatives as potent non-nucleoside reverse transcriptase inhibitors with improved potency and selectivity” (Eur J Med Chem, 2023).

The test system of series [1] is Human immunodeficiency virus 1. Kind of series: Anti-HIV activity against wild type HIV-1 IIIB infected in human MT4 cells assessed as inhibition of virus-induced cytopathic effect by MTT assay. The format is functional, organism-based. As to conditions: Human immunodeficiency virus 1, IIIB. (Protection from cytopathic effect is a common read-out in antiviral testing.)

Series [2] can be described thus: Cytotoxicity against human MT4 cells assessed as reduction in cell viability by MTT assay. The class given is toxicity, cell-based. For orientation: Tetrazolium assays rely on reduction of a dye to a coloured formazan, in cell work by metabolically active cells.
Series [3] is described as follows: Selectivity index, ratio of CC50 for cytotoxicity against human MT4 cells assessed as reduction in cell viability by MTT assay to EC50 for anti-HIV activity against wild type HIV-1 IIIB infected in human MT4 cells assessed as inhibition of virus-induced cytopathic effect by MTT assay. The format is toxicity, cell-based. As to conditions: read-out: Ratio CC50/EC50.

For series [4], the system named is Human immunodeficiency virus 1. Nature of the series: Anti-HIV activity against drug resistant HIV-1 harboring L100I mutant infected in human MT4 cells assessed as inhibition of virus-induced cytopathic effect by MTT assay. The format is functional, organism-based. As to conditions: Human immunodeficiency virus 1, MT4.
In series [5] the test system is Human immunodeficiency virus 1. Nature of the series: Anti-HIV activity against drug resistant HIV-1 harboring K103N mutant infected in human MT4 cells assessed as inhibition of virus-induced cytopathic effect by MTT assay. The format is functional, organism-based. As to conditions: Human immunodeficiency virus 1, MT4.
The test system of series [6] is Human immunodeficiency virus 1. Nature of the series: Anti-HIV activity against drug resistant HIV-1 harboring Y181C mutant infected in human MT4 cells assessed as inhibition of virus-induced cytopathic effect by MTT assay. The format is functional, organism-based. As to conditions: Human immunodeficiency virus 1, MT4.
Series [7] concerns Human immunodeficiency virus 1. Nature of the series: Anti-HIV activity against drug resistant HIV-1 harboring Y188L mutant infected in human MT4 cells assessed as inhibition of virus-induced cytopathic effect by MTT assay. The class given is functional, organism-based. To be noted: Human immunodeficiency virus 1, MT4.
The subject of series [8] is Human immunodeficiency virus 1. Kind of series: Anti-HIV activity against drug resistant HIV-1 harboring E138K mutant infected in human MT4 cells assessed as inhibition of virus-induced cytopathic effect by MTT assay. The class given is functional, organism-based. As to conditions: Human immunodeficiency virus 1, MT4.
Series [9] relates to Human immunodeficiency virus 1. Kind of series: Anti-HIV activity against drug resistant HIV-1 harboring F227L/V106A mutant infected in human MT4 cells assessed as inhibition of virus-induced cytopathic effect by MTT assay. The class given is functional, organism-based. To be noted: Human immunodeficiency virus 1, MT4.
The target of series [10] is Human immunodeficiency virus type 1 reverse transcriptase (Human immunodeficiency virus 1, UniProt Q72547). Kind of series: Inhibition of wild type HIV-1 reverse transcriptase assessed as assessed as inhibition of biotin deoxyuridine triphosphate incorporation into […].
A further series concerns the target T1, Cytochrome P450 1A2 (Homo sapiens, UniProt P05177).
T1 sequence (P05177 whole entry): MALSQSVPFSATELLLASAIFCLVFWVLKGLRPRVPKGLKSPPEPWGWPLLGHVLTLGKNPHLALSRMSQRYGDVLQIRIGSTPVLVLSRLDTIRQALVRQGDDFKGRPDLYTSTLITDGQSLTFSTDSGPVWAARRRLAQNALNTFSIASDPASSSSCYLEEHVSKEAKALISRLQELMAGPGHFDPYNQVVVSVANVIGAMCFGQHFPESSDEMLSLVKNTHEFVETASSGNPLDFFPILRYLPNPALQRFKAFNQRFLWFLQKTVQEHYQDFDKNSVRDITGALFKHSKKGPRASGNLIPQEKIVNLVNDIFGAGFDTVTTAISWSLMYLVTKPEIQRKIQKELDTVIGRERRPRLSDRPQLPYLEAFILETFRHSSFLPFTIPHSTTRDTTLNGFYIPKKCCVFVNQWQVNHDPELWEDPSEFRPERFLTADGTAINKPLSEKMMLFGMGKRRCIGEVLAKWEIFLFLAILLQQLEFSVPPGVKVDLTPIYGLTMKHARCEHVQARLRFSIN
Nature of the series: Inhibition of CYP1A2 in human liver microsomes using phenacetin as substrate measured after 10 mins in presence of NADPH. The format is ADME, Microsome. Background: Liver microsomes are vesicles of endoplasmic reticulum, rich in cytochrome P450 enzymes.

The next series concerns the target Cytochrome P450 2C9 (Homo sapiens, UniProt P11712). Kind of series: Inhibition of CYP2C9 in human liver microsomes using tolbutamide as substrate measured after 10 mins in presence of NADPH. The class given is ADME, Microsome.
A further series deals with Cytochrome P450 2C19 (Homo sapiens, UniProt P33261). Kind of series: Inhibition of CYP2C19 in human liver microsomes using mephenytoin as substrate measured after 10 mins in presence of NADPH. The class given is ADME, Microsome.
For another series, the target named is Cytochrome P450 2D6 (Homo sapiens, UniProt P10635). Nature of the series: Inhibition of CYP2D6 in human liver microsomes using dextromethorphan as substrate measured after 10 mins in presence of NADPH. The format is ADME, Microsome.
For series [11], the target named is T2, Cytochrome P450 3A4 (Homo sapiens, UniProt P08684). Kind of series: Inhibition of CYP3A4T in human liver microsomes using testosterone as substrate measured after 10 mins in presence of NADPH. The format is ADME, Microsome.
Series [12] deals with T2, Cytochrome P450 3A4. Nature of the series: Inhibition of CYP3A4M in human liver microsomes using midazolam as substrate measured after 10 mins in presence of NADPH. The class given is ADME, Microsome.
The target in another series is hERG (KCNH2) (Homo sapiens, UniProt Q12809). Kind of series: Inhibition of human ERG expressed in CHO cells at 40 uM by automated patch-clamp electrophysiological assay. The class given is toxicity, cell-based. As to conditions: CHO cells that express hERG.
Series [13] can be described thus: Acute toxicity in mouse assessed as change in body weight at 1000 mg/kg, po. The format is organism-based. To be noted: in vivo.
Series [14] is described as follows: Acute toxicity in mouse assessed as histopathological changes in heart at 1000 mg/kg, po by Hematoxylin and eosin staining based microscopy. To be noted: in vivo. The format is organism-based.
Series [15] in a line: Acute toxicity in mouse assessed as histopathological changes in liver at 1000 mg/kg, po by Hematoxylin and eosin staining based microscopy. The class given is organism-based. As to conditions: in vivo.
Series [16] in a line: Acute toxicity in mouse assessed as histopathological changes in spleen at 1000 mg/kg, po by Hematoxylin and eosin staining based microscopy. As to conditions: in vivo. The class given is organism-based.
The nature of series [17]: Acute toxicity in mouse assessed as histopathological changes in lung at 1000 mg/kg, po by Hematoxylin and eosin staining based microscopy. As to conditions: in vivo. The format is organism-based.
A short description of series [18]: Acute toxicity in mouse assessed as histopathological changes in kidney at 1000 mg/kg, po by Hematoxylin and eosin staining based microscopy. The class given is organism-based. To be noted: in vivo.
The nature of series [19]: Acute toxicity in mouse assessed as histopathological changes in brain at 1000 mg/kg, po by Hematoxylin and eosin staining based microscopy. The format is organism-based. To be noted: in vivo.

The structures appear in SMILES notation.

One may read the EC50 as the midpoint of the concentration-response curve. One may read the CC50 as the concentration at which the toxic effect on the cells reaches its halfway point. One may read the IC50 as the concentration that inhibits the measured activity by half. The term inhibition denotes the share of the control response that was lost under treatment. Low values mean a response near the control, high ones a response far below the control.

T2 sequence (P08684 whole entry): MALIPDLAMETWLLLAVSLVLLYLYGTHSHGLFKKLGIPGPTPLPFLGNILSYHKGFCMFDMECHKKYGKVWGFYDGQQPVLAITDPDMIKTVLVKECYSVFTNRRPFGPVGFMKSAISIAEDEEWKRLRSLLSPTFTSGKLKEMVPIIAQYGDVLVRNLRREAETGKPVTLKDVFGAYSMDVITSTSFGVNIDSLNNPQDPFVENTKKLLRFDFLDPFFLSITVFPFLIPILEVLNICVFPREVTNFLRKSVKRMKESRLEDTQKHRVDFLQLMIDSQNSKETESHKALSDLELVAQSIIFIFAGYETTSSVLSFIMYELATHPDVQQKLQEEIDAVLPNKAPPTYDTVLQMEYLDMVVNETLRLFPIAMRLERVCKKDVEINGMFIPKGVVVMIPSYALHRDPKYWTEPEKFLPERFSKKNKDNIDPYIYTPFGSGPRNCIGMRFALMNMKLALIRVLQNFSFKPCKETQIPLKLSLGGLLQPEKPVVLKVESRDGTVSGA
Chain of Cytochrome P450 2D6 (P10635 whole entry): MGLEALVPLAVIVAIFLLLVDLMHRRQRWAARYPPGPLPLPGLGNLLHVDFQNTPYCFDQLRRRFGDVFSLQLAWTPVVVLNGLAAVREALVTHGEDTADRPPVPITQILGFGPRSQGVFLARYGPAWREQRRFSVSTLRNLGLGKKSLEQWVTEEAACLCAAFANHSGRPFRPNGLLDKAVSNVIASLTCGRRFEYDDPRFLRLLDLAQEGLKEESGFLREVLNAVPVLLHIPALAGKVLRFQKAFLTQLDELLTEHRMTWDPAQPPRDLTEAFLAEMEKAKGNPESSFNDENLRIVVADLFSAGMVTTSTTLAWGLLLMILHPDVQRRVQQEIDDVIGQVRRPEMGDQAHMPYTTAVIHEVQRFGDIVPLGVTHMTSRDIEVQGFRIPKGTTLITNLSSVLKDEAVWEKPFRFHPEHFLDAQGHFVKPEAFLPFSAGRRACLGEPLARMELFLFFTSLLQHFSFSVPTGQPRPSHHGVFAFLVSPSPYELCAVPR
Chain of Cytochrome P450 2C19 (P33261 whole entry): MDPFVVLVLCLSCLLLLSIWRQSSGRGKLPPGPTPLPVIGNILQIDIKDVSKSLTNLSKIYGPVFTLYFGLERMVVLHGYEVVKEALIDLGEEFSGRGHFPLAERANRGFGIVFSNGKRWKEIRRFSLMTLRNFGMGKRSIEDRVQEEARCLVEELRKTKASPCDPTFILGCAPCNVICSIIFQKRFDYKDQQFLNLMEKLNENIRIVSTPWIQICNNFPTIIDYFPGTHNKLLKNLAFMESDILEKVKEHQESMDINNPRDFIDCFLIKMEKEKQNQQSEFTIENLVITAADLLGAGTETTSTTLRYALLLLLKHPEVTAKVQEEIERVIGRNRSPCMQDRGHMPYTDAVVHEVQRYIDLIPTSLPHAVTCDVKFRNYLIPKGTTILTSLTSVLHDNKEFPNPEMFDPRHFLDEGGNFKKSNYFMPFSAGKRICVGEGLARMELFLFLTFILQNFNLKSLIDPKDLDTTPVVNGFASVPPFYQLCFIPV
Chain of hERG (KCNH2) (Q12809 whole entry): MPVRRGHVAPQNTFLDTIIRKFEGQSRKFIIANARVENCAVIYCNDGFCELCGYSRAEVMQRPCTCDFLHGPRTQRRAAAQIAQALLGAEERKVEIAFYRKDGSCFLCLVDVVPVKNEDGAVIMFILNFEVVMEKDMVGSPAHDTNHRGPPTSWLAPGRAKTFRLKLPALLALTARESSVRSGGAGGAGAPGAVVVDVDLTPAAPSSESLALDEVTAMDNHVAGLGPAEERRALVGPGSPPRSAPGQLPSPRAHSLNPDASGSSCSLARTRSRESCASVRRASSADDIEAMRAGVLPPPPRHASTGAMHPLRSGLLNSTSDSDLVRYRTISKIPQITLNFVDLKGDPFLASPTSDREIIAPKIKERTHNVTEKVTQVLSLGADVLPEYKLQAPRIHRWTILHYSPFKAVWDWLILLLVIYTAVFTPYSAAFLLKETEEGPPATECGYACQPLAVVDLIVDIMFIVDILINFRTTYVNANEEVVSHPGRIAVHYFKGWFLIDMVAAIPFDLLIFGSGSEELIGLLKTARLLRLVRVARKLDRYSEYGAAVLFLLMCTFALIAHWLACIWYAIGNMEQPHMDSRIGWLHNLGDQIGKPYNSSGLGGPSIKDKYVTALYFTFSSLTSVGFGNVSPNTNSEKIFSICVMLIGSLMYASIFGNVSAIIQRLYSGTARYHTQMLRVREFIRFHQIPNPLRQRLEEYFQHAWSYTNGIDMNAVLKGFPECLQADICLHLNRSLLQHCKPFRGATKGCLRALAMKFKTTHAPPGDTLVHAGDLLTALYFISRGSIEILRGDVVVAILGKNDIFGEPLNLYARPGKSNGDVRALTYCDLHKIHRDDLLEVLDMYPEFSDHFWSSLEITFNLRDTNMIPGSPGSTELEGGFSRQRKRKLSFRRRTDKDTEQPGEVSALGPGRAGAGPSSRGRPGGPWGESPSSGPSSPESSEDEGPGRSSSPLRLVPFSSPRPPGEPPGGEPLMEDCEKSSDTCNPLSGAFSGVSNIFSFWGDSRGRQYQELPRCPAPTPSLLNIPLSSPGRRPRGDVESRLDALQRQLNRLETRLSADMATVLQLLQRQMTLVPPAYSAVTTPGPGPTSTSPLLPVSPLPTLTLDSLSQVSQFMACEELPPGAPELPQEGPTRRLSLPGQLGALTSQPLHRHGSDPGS
Chain of Cytochrome P450 2C9 (P11712 whole entry): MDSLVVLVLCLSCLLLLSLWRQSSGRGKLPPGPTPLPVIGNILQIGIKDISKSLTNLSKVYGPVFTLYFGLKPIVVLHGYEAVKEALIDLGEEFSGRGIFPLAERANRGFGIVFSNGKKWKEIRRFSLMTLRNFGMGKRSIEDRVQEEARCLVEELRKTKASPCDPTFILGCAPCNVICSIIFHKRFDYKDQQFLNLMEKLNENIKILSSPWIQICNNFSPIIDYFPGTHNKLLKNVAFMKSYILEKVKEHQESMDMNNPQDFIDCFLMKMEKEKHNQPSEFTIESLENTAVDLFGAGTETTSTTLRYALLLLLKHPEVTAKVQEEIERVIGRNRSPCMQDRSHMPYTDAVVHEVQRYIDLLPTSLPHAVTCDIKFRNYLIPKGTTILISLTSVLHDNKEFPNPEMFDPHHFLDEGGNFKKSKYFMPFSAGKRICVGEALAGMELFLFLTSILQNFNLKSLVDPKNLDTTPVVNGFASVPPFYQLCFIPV

As for `CCc1c(C(N=[N+]=[N-])c2cc(C)cc(C)c2)nc(SC(C)C)[nH]c1=O` (stereo not drawn), the half-maximal effective concentration (EC50) in [1] was 0.067 µM; in series [4], 0.97 µM; in series [5] it was 4.82 µM; in [6] it was 4.68 µM; in series [7] it was greater than 350 µM; in series [8] it was 0.41 µM. In addition, in [9], the EC50 was 14.3 µM. Further, in [2], the CC50 is greater than 350 µM. The selectivity ratio in [3] was greater than 5240. Moreover, in series [10], the IC50 was found to be 0.1 µM.
With `CCc1c(C(N=[N+]=[N-])c2ccc(C)cc2)nc(SC(C)C)[nH]c1=O` (stereo not drawn), the EC50 in series [1] was 0.16 µM; in series [4], 0.13 µM; in series [5] it was 3.9 µM; in series [6], 114 µM; in [7], greater than 364 µM; in series [8], 0.45 µM. Also, the EC50 in series [9] was 314 µM. In addition, the CC50 in series [2] was greater than 364 µM. Besides, the selectivity ratio in series [3] is greater than 2300. Moreover, the IC50 in [10] is 0.17 µM.
As for `Cc1cc(C)cc(C(N=[N+]=[N-])c2nc(SC(C)C)[nH]c(=O)c2C)c1` (stereo not drawn), the EC50 in series [1] was 0.053 µM; in series [4] it was 1.05 µM; in series [5], 2.51 µM; in [6], 2.28 µM; in series [7], 203 µM; in series [8], 0.26 µM. Also, the EC50 in series [9] was 7.88 µM. The CC50 in series [2] is greater than 364 µM. In addition, the selectivity ratio in [3] is greater than 6820. For the same compound, the concentration for half-maximal inhibition (IC50) was 0.08 µM in [10]; greater than 50 µM on Cytochrome P450 1A2; 35.8 µM at Cytochrome P450 2C9; 27.1 µM at Cytochrome P450 2C19; greater than 50 µM on Cytochrome P450 2D6; greater than 50 µM on Cytochrome P450 3A4 [11]. Moreover, the IC50 at Cytochrome P450 3A4 [12] was greater than 50 µM. Besides, on hERG (KCNH2), the inhibition at 40 µM came out at 41.4%. Besides, the Activity entry in series [13], in series [14], in series [15], in series [16], in series [17] and in series [18] was “Non-Toxic” each time. Besides, the Activity entry in series [19] is “Non-Toxic”.
As to `CCc1c(C(N=[N+]=[N-])c2ccc(Br)cc2)nc(SC(C)C)[nH]c1=O` (stereo not drawn), the concentration for a half-maximal effect (EC50) stood at 0.29 µM in series [1]; 10.4 µM in series [4]; 51.2 µM in series [5]; 65.2 µM in series [6]; 160 µM in [7]; 1.86 µM in series [8]. For the same compound, the EC50 in series [9] stood at 95.7 µM. Further, in series [2], the cytotoxic concentration (CC50) was greater than 306 µM. Besides, the selectivity ratio in series [3] is greater than 1040.
